Reference: patent US6706686B2, “Inhibition of histone deacetylase as a treatment for cardiac hypertrophy” (The Regents of the University of Colorado, priority 2001, dated 2004)
Entries after “also recorded” stand apart in the source; their conditions may differ.

How the values were obtained:
[1] = tested on: transformed cells; details: Marks et al. (2000); cited from earlier work
[2] = tested on: CMV-Lac Z reporter in neonatal rat cardiomyocytes; assay: CMV-Lac Z reporter (specificity control); assay type: cell-based; details: inhibitor alone or together with phenylephrine
Protocol: (§1) FIGS. 3A-D. HDAC inhibitors block the activation of ANF reporter by phenylphrine without cytotoxicity. Neonatal rat cardiomyocytes were co-transfected with a total of 1 μg of the mouse 3 kb ANF promoter fragment and CMV-Lac Z plasmids. (FIG. 3A) The ANF promoter is minimally active in unstimulated cardiomyocytes. […] (FIG. 3B) Lac Z expression by the constitutive promoter CMV. Treatment with HDAC inhibitors augmented CMV activity with and without phenylephrine co-treatment. (FIGS. 3C and 3D) The graphs show the measurements of adenylate kinase activity remains constant in the medium after […] of culturing cardiomyocytes in the absence or presence of hypertrophic stimulants FBS, PE or ET-1.
(§2) Transcription assay. Twenty-four hours after plating, cells were transfected with total of 1 μg/ml for 5 hrs using Lipofectamine Plus reagent (Invitrogen, Carlsbad, Calif.). Transfected cells were incubated 24 hrs then treated for an additional 24 hrs. Cells were lysed and their lysates assayed with the Luciferase Assay System (Promega, Madison, Wis.) for luminescence using Lucysoft 2 luminometer (Rosys Anthos, New Castle, Del.).

[3] = tested on: cardiomyocytes; assay: Protein synthesis (tritiated leucine, S6 ribosomal protein); assay type: cell-based, rat
Protocol: FIG. 6. The effects of TSA treatment on the reorganization of the sarcomeres and protein synthesis. […] The graphs on the right show the content of S6 ribosome protein in cardiomyocytes after 24 hours co-treatment with PE and increasing concentrations of TSA or with serum and increasing concentrations of TSA.
Protein synthesis. Cardiomyocytes were incubated with (1.0 μCi/ml; 172 Ci/mmol sp. activity) tritiated-leucine (ICN Biochemicals, Inc., Irvine, Calif.) in treated RPMI media (Invitrogen, Carlsbad, Calif.). After 6 hrs incubation, the cells were washed twice with 1× PBS, then incubated in 10% TCA on ice for 30 min. Afterwards, the cells were washed twice with 5% TCA, once with water, and then lysed in […]. Lysates were measured in one-sixth volume of scintillation fluid by a scintillation counter (Beckman, Fullerton, Calif.).
S6 Ribosomal protocol. After blocking, cells were incubated in 1% BSA/1× PBS containing 50 μg/ml anti-S6 protein (Cell Signaling, […]) for 1 hr. After washing, the cells were incubated with IgG-HRP (Jackson Labs, […]) at a 1:400 dilution. The cells were then washed twice in 1% BSA/1× PBS, in 1× PBS, then blotted dry. Luminol (Pierce, Rockford, Ill.) was added and the chemiluminescence was detected in a Fusion reader (Perkin-Elmer/Packard).

[4] = tested on: cultured cardiomyocytes; assay: Adenylate kinase release cytotoxicity assay; assay type: cell-based; details: increasing doses: TSA up to 100 nM, sodium butyrate up to 25 nM
Protocol: as §1
Inventors then examined whether increasing doses of TSA and sodium butyrate were cytotoxic to cultured cardiomyocytes. To determine cell mortality, the release of adenylate kinase from cardiomyocytes into the culture medium was assayed. This assay is a known measurement for the integrity of the cell membrane: membranes become permeable in dying cells causing the cells release adenylate kinase.

[5] = tested on: ANF in neonatal cardiomyocytes; assay: ANF chemiluminescence detection, dose response; assay type: cell-based, rat
Protocol: FIGS. 4A-C. […] As in the transfection experiments, phenylephrine (100 µM) induces ANF expression over three-fold. […] (FIGS. 4B and 4C) The graphs show a reduction of the chemiluminent detection of ANF in the culture medium with increasing concentrations of the HDAC inhibitors TSA (FIG. 4B) and sodium butyrate (FIG. 4C) when co-cultured with the hypertrophic stimulants FBS, PE or ET-1.
Chemilumenescence. Neonatal cardiomyocytes were seeded onto 96-well plates and treated for 72 hrs. The cells were washed twice in 1×PBS, fixed in 4% paraformaldehyde/1×PBS, and permeabilized with 0.1% Triton-X100. After blocking, the cells were incubated 1 hr. with 10 μg/ml monoclonal anti-ANF antibody (Biodesign). The wells were washed twice with 1% BSA/1× PBS and then incubated for 1 hr. with goat anti-mouse IgG-Fc-HRP (Jackson Labs, […]) at 1:1000 in 1× PBS/1% BSA. Cells were washed twice with 1% BSA/1×PBS, twice with 1× PBS, then blotted dry. Luminol (Pierce, Rockford, Ill.) was added and the chemiluminescence was detected in a Fusion Plate Reader (Perkin Elmer/Packard).

[6] = tested on: ANF, αSK-actin, αMyHC, βMyHC RNA in cardiomyocytes; assay: RNA dot blot of fetal gene program; assay type: cell-based, rat; details: phenylephrine 100 μM, TSA 85 nM, sodium butyrate 5 mM, HC-toxin 5 ng/ml
Protocol: FIGS. 5A-B. Treatment of cardiomyocytes with HDAC inhibitors blocks the fetal gene program associated with cardiomyocyte hypertrophy. […] The graphs represent three or more independent experiments.
Dot Blot analysis. Total RNA was isolated from cardiomyocytes that were either untreated, treated with phenylephrine, treated with TSA, or co-treated with phenylephrine and TSA. One microgram of RNA was blotted onto Nitrocellulose (Bio-Rad, Hercules, Calif.) and hybridized at 50° C. for 14 hrs with end-labeled oligos. (ANF, 5′-[…]-3, SEQ ID NO 1; αSK actin5′-[…]-3′, SEQ ID NO2; αMyHC,5′[…]-3′, SEQ ID NO 3; βMyHC5′-[…]-3′, SEQ ID NO 4; GAPDH5′-[…]-3′, SEQ ID NO 5). The blots were washed twice in 2×SSC/0.5% SDS solution and exposed to film (Kodak, Rochester, N.Y.) or phosphoimager (Amersham Bioscience, Sunnyvale, Calif.). The intensity of the hybridization of the probes was measured using ImageQuant® (Amersham Bioscience, Sunnyvale, Calif.).

[7] = tested on: ANF promoter in neonatal rat cardiomyocytes; assay: ANF promoter transcription (luciferase) assay; assay type: cell-based; details: for activation of ANF promoter by phenylephrine: phenylephrine 100 μM, TSA 85 nM, NaBut 5 mM, HC-toxin 5 ng/ml; for ANF promoter activity, inhibitor alone: unstimulated cardiomyocytes
Protocol: as §1
Cardiomyocyte isolation. Hearts were harvested from 15-day timed-pregnant female Sprague-Dawley rats (Harlan, Houston, Tex.). After mincing in phosphate-buffered saline, cardiomyocytes were isolated from successive digestion fractions of 0.1% (w/v) Pancreatin (Sigma, St. Louis, Mo.) solution. Fractions were collected; resuspended in plating medium, pooled; and then plated for 2 hours to separate fibroblasts from cardiomyocyte population. Suspended cells were recollected and plated in 6-well dishes at 1×10^6 cells/well for transfection and immunofluorescence experiments, and 2×10^6 cells in 10 cm dishes for RNA analysis.
as §2

[8] = tested on: HDAC; details: Marks et al. (2000); cited from earlier work

| Compound | effect on transformed cells [1] | transcriptional activity of CMV-Lac Z reporter [2] | phenylephrine-induced endogenous ANF RNA expression [6] | activation of ANF promoter by phenylephrine [7] | ANF promoter activity, inhibitor alone [7] | also measured |
| --- | --- | --- | --- | --- | --- | --- |
| O=C(CCCCCCC(=O)Nc1ccccc1)NO [SAHA, suberoylanilide hydroxamic acid] | induce growth arrest, differentiation, or apoptotic cell death of transformed cells | – | – | – | – | – |
| CCCC(=O)[O-].[Na+] [sodium butyrate] | – | increased the transcriptional activity of the CMV-Lac Z reporter | blocks the accumulation of ANF message | did block the promoter's activation by phenylephrine treatment completely | did not activate the ANF promoter | phenylephrine-stimulated protein synthesis, 6 hours ([3]; 6 hours co-culture with phenylephrine): had little effect on the stimulation of protein synthesis; protein synthesis induced by PE or serum, 24 hrs ([3]; 24 hrs co-treatment): antagonized the protein synthesis normally induced by PE or serum in a dose-dependent manner; adenylate kinase in the culture medium (cell death) [4]: did little to increase adenylate kinase; minimal concentration that inhibited the hypertrophic response (ANF) of each growth stimulant ([5]; FBS, PE, ET-1): 5 mM; induction of ANF expression by FBS, PE and ET-1 ([5]; increasing concentrations): countered the induction of ANF expression; ANF expression at very low doses ([5]; very low doses (0.2 nM printed for sodium butyrate)): near two-fold increase; phenylephrine-induced endogenous ANF RNA expression ([6]; listed as NaBut): prevented the phenylephrine-induced ANF response; activation of ANF promoter by phenylephrine ([7]; listed as NaBut): prevented the activation of the ANF promoter |
| O=C(CCCCCCC(=O)Nc1cccnc1)NO [pyroxamide, suberoyl-3-aminopyridineamide hydroxyamic acid] | induce growth arrest, differentiation, or apoptotic cell death of transformed cells | – | – | – | – | inhibition of HDAC [8]: potent inhibitors of HDAC in vitro and in vivo |
| C[C@@H]1NC(=O)[C@H]2CCCN2C(=O)[C@H](CCCCCC(=O)[C@@H]2CO2)NC(=O)[C@@H](C)NC1=O [HC-toxin] | – | increased the transcriptional activity of the CMV-Lac Z reporter | prevented the phenylephrine-induced ANF response; also recorded: blocks the accumulation of ANF message | did block the promoter's activation by phenylephrine treatment completely; also recorded: prevented the activation of the ANF promoter | did not activate the ANF promoter | – |
